The values below come from patent USRE38117E1, “Trioxane dimer compound having antiproliferative and antitumor activities” (Hauser, Inc., priority 1995, dated 2003).

Test [1] relates to murine keratinocyte cell line PE. Kind of test: Viability of PE cells by trypan blue exclusion. Format: cell-based. The following applies: 96 h.
Test [2] shares this test system. Kind of test: Growth inhibition of PE cells (MTT assay). Format: cell-based. The following applies: murine keratinocytes, FIGS. 1-9. Here is the method: To determine the inhibitory effect of the trioxane dimers of the present invention on cell proliferation, screening assays were performed on a murine keratinocyte cell line PE. […] PE cell culture medium consisted of Eagle's minimal essential medium without calcium chloride (Whittaker Bioproducts, Walkersville, Ma.) supplemented with 8% chelexed fetal calf serum and 1% antibiotic-antimycotic (Gibco BRL) and the addition of CaCl2 to 0.05 mM Ca^++. […] (St. Louis, Mo.), and TPA was supplied by L. C. Services (Woburn, Ma.). L-[^14C]ornithine ([…]) was from Amersham/Searle Corp. (Arlington Heights, Ill.). Chemical solvents used in all assays of biological activity were of the highest grade commercially available. Growth Inhibition. […] A mitochondrial dehydrogenase reduces MTT to a blue formazan product with an absorbance maximum of 505 nm in DMSO; the number of viable cells can thus be determined spectrophotometrically. PE cells were seeded at a density of 5,000 cells/well in 50 μL of medium into 96-well microtiter plates. […] The plates were fed once at 48 h, with the readdition of the vitamin D3 analogs at this time. […] After 4 h, the MTT was removed and DMSO added to dissolve the blue formazan dye. Using a microtiter plate reader, the […] was then determined and cell number calculated from blank-subtracted absorbance values.
(Formazan colour is commonly taken as a measure of viable cells.)

Test [3] deals with P. berghei. The note with it: Klayman 1985; cited from earlier work.

Take `C=C1/C(=C\C=C2/CCC[C@]3(C)[C@@H]([C@H](C)CCCC(C)(C)O)CC[C@@H]23)C[C@@H](O)C[C@@H]1O` [calcitriol, 1α, 25-dihydroxyvitamin D3]: the “viability of the cells” value in test [1] is listed as “identical to control cells”.

For `COC1OC2(C)CCC3CCCC(CCOP(=O)(OC)OCCC4CCCC5CCC6(C)OOC45C(OC)O6)C31OO2` (stereo not drawn) [Compound 21, Bis-trioxane phosphate ester], in test [2], the antiproliferative activity result is “Neither phosphate dimers 20, and 21 nor phosphonate dimer 22 has significant antiproliferative activity”.

Consider `CC1=CO[C@@H]2O[C@]3(C)CC[C@H]4[C@H](C)CC[C@@H]1[C@@]24OO3` [III], for which the “activity against P. berghei-infected mice” value in test [3] is “inactive”.

As to `COC1OC2(C)CCC3CCCC(CCOP(=O)(OCCC4CCCC5CCC6(C)OOC45C(OC)O6)Oc4ccccc4)C31OO2` (stereo not drawn) [Compound 20, Bis-trioxane phosphate ester], the antiproliferative activity entry in test [2] is “Neither phosphate dimers 20, and 21 nor phosphonate dimer 22 has significant antiproliferative activity”.

For `COC1OC2(C)CCC3CCCC(CCOC(=O)CCCC(=O)OCCC4CCCC5CCC6(C)OOC45C(OC)O6)C31OO2` (stereo not drawn) [Compound 15, Trioxane Bis-ester Dimer], the antiproliferative activity result in test [2] was “the most active”.

For the compound “4β-Hydroxymethyl Trioxane Terephthalate Dimer [Compound 24]”, in test [2], the antiproliferative activity result is “significant antiproliferative activity”.
